Experiments:
[1] = PFAS levels in serum samples of airport employees (LC/MS/MS)
Procedure, shortened: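 Serum from airport employees, drawn after contaminated drinking-water exposure ended, up to five monthly rounds, all reanalyzed in one batch. 25 μL serum precipitated with acetonitrile/methanol plus labeled internal standards; LC/MS/MS on BEH C18 with ammonium acetate/methanol gradient, calibrants prepared in FBS.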

[2] = Individual serum elimination rate and half-life (linear regression per employee); details: individual estimate;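 for HL (half-life): half-life in years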
Procedure, shortened: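 Log-transformed serum PFAS concentrations regressed on days since clean bottled water supply, per employee, assuming one-compartment first-order elimination. Individual k taken as −β (negative slope); half-life as ln2/k for each PFAS. No half-life calculated when β was positive.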

[3] = 1st sampling (September 2018), count 17
[4] = 2nd sampling (October 2018), count 17
[5] = 3rd sampling (November, 2018), count 17
[6] = 4th sampling (December 2018), count 16
[7] = 5th sampling (January 2019), count 16
[8] = employees participated in first blood sampling and repeated blood and urine sampling, N=17
[9] = employees participated in first blood sampling only, N=9, 11-14 d after end of exposure

## Perfluoro-2/6-methylheptanesulfonate [2/6m-PFOS]
[1]; [3]
  Serum PFAS level, 25 percentile: 1.4
  Serum PFAS level, 75 percentile: 3.6
  Serum PFAS level, Max: 7.5
  Serum PFAS level, Median: 2.6
  Serum PFAS level, Min: 1.0
[1]; [4]
  Serum PFAS level, 25 percentile: 1.5
  Serum PFAS level, 75 percentile: 2.8
  Serum PFAS level, Max: 7.2
  Serum PFAS level, Median: 2.2
  Serum PFAS level, Min: 0.97
[1]; [5]
  Serum PFAS level, 25 percentile: 1.3
  Serum PFAS level, 75 percentile: 3.5
  Serum PFAS level, Max: 8.1
  Serum PFAS level, Median: 2.3
  Serum PFAS level, Min: 0.66
[1]; [6]
  Serum PFAS level, 25 percentile: 0.96
  Serum PFAS level, 75 percentile: 2.9
  Serum PFAS level, Max: 7.1
  Serum PFAS level, Median: 1.9
  Serum PFAS level, Min: 0.57
[1]; [7]
  Serum PFAS level, 25 percentile: 1.2
  Serum PFAS level, 75 percentile: 2.7
  Serum PFAS level, Max: 7.0
  Serum PFAS level, Median: 2.1
  Serum PFAS level, Min: 0.83
[1]; [8]
  PFAS in first serum sample, median (range): 2.6 (1.0–7.5) ng/mL
[1]; [9]
  PFAS in first serum sample, median (range): 1.8 (0.84–3.2) ng/mL
[1]; females (N=7)
  Initial serum PFAS level, max: 2.8 ng/mL
  Initial serum PFAS level, median: 1.4 ng/mL
  Initial serum PFAS level, min: 1.0 ng/mL
[1]; males (N=19)
  Initial serum PFAS level, Max: 7.5 ng/mL
  Initial serum PFAS level, Min: 0.84 ng/mL
  Initial serum PFAS level, median: 2.5 ng/mL
[1]; second to fifth samplings, 17 airport employees
  Serum level, median (range): 2.1 (0.57–8.1) ng/mL
[2]; subject 1, 5 samples
  Elimination rate: −0.2 yearly
[2]; subject 2, 5 samples
  Elimination rate: 0.5 yearly
  HL (half-life): 1.3 year
[2]; subject 3, 5 samples
  Elimination rate: 0.7 yearly
  HL (half-life): 1.0 year
[2]; subject 4, 5 samples
  Elimination rate: 0.0 yearly
[2]; subject 5, 5 samples
  Elimination rate: 0.4 yearly
  HL (half-life): 1.6 year
[2]; subject 6, 4 samples
  Elimination rate: 0.4 yearly
  HL (half-life): 1.7 year
[2]; subject 7, 5 samples
  Elimination rate: 1.1 yearly
  HL (half-life): 0.6 year
[2]; subject 8, 5 samples
  Elimination rate: −0.2 yearly
[2]; subject 9, 5 samples
  Elimination rate: 0.2 yearly
  HL (half-life): 4.2 year
[2]; subject 10, 5 samples
  Elimination rate: −0.007 yearly
[2]; subject 11, 5 samples
  Elimination rate: 1.7 yearly
  HL (half-life): 0.4 year
[2]; subject 12, 5 samples
  Elimination rate: 1.7 yearly
  HL (half-life): 0.4 year
[2]; subject 13, 5 samples
  Elimination rate: 1.0 yearly
  HL (half-life): 0.7 year
[2]; subject 14, 4 samples
  Elimination rate: 1.5 yearly
  HL (half-life): 0.5 year
[2]; subject 15, 5 samples
  Elimination rate: 1.2 yearly
  HL (half-life): 0.6 year
[2]; subject 16, 5 samples
  Elimination rate: −0.1 yearly
[2]; subject 17, 5 samples
  Elimination rate: 1.9 yearly
  HL (half-life): 0.4 year

## perfluoro-3/4/5-methylheptanesulfonate [3/4/5m-PFOS]
[1]; [3]
  Serum PFAS level, 25 percentile: 2.7
  Serum PFAS level, 75 percentile: 6.3
  Serum PFAS level, Max: 17
  Serum PFAS level, Median: 4.9
  Serum PFAS level, Min: 1.7
[1]; [4]
  Serum PFAS level, 25 percentile: 2.4
  Serum PFAS level, 75 percentile: 4.8
  Serum PFAS level, Max: 15
  Serum PFAS level, Median: 4.1
  Serum PFAS level, Min: 1.3
[1]; [5]
  Serum PFAS level, 25 percentile: 2.5
  Serum PFAS level, 75 percentile: 5.1
  Serum PFAS level, Max: 16
  Serum PFAS level, Median: 4.2
  Serum PFAS level, Min: 1.0
[1]; [6]
  Serum PFAS level, 25 percentile: 2.1
  Serum PFAS level, 75 percentile: 4.9
  Serum PFAS level, Max: 16
  Serum PFAS level, Median: 3.6
  Serum PFAS level, Min: 1.0
[1]; [7]
  Serum PFAS level, 25 percentile: 2.7
  Serum PFAS level, 75 percentile: 4.9
  Serum PFAS level, Max: 16
  Serum PFAS level, Median: 4.0
  Serum PFAS level, Min: 1.0
[1]; [8]
  PFAS in first serum sample, median (range): 4.9 (1.7–17) ng/mL
[1]; [9]
  PFAS in first serum sample, median (range): 2.9 (1.2–6.7) ng/mL
[1]; females (N=7)
  Initial serum PFAS level, max: 5.4 ng/mL
  Initial serum PFAS level, median: 2.9 ng/mL
  Initial serum PFAS level, min: 1.7 ng/mL
[1]; males (N=19)
  Initial serum PFAS level, Max: 17 ng/mL
  Initial serum PFAS level, Min: 1.2 ng/mL
  Initial serum PFAS level, median: 4.9 ng/mL
[2]; subject 1, 5 samples
  Elimination rate: 0.4 yearly
  HL (half-life): 1.9 year
[2]; subject 2, 5 samples
  Elimination rate: 0.3 yearly
  HL (half-life): 2.1 year
[2]; subject 3, 5 samples
  Elimination rate: 0.4 yearly
  HL (half-life): 1.7 year
[2]; subject 4, 5 samples
  Elimination rate: 0.1 yearly
  HL (half-life): 11 year
[2]; subject 5, 5 samples
  Elimination rate: 0.2 yearly
  HL (half-life): 3.1 year
[2]; subject 6, 4 samples
  Elimination rate: 0.04 yearly
  HL (half-life): 19 year
[2]; subject 7, 5 samples
  Elimination rate: 0.1 yearly
  HL (half-life): 4.8 year
[2]; subject 8, 5 samples
  Elimination rate: −0.2 yearly
[2]; subject 9, 5 samples
  Elimination rate: 0.1 yearly
  HL (half-life): 10 year
[2]; subject 10, 5 samples
  Elimination rate: 0.2 yearly
  HL (half-life): 4.0 year
[2]; subject 11, 5 samples
  Elimination rate: 2.0 yearly
  HL (half-life): 0.4 year
[2]; subject 12, 5 samples
  Elimination rate: 0.5 yearly
  HL (half-life): 1.3 year
[2]; subject 13, 5 samples
  Elimination rate: 0.5 yearly
  HL (half-life): 1.5 year
[2]; subject 14, 4 samples
  Elimination rate: 0.3 yearly
  HL (half-life): 2.0 year
[2]; subject 15, 5 samples
  Elimination rate: 2.2 yearly
  HL (half-life): 0.3 year
[2]; subject 16, 5 samples
  Elimination rate: 0.3 yearly
  HL (half-life): 2.0 year
[2]; subject 17, 5 samples
  Elimination rate: 1.9 yearly
  HL (half-life): 0.4 year
